In one experiment the test system is NCI-H460. Kind of experiment: SRB cytotoxicity assay, NCI-H460. To be noted: Homo sapiens. It counts as cell-based. On the procedure: (§1) Cells were treated on Days 1, 3, 5, and 7 with 5 μL of media, vehicle, or drug. Peloruside A was resuspended in 0.1% DMSO and added to wells to a final concentration of 0.01, 0.1, 1, 10 or 100 nM. Taxol® (Sigma-Aldrich) was resuspended in 0.1% ethanol and added to cells to a final concentration of 0.1, 1, 10, 100, or 1000 nM.
(§2) The amount of surviving cells was measured using the sulforhodamine B (SRB) assay as previously described (Skehan et al., New colorimetric cytotoxicity assay for anticancer-drug screening. J. Natl. Cancer Inst., 1990. 82(13): p. 1107-12). Cells were fixed on Days 5, 7, and 9 (representing 4, 6, and 8 days of exposure to drug or control, respectively) with 50% (w/v) trichloroacetic acid for 1 hour at 4° C., rinsed thoroughly with water, and dried overnight. The dried cells were stained with 4% sulforhodamine B in 1% acetic acid, rinsed thoroughly and dried overnight. The bound dye was resuspended in 10 mM Tris and the absorbance was read at 492 nm. Percent growth inhibition (GI) was calculated as follows: %GI=(1−(absorbance sample/absorbance vehicle))×100. The absorbance value for each drug concentration and control represents the average of 6 replicates. The %GI was plotted against the log[drug] to generate the growth curves. The concentration of drug required to inhibit growth by 50% (GI50) was calculated for each time point.

Experiment [1] concerns various cultured human tumor cell lines. Kind of experiment: Proliferation of a panel of tumor cell lines. It counts as cell-based. To be noted: panel: colon, pancreas, melanoma, ovarian, renal, liver, lung, breast, prostate. The procedure:
as §1, §2

Another experiment deals with SK-MEL-28. Kind of experiment: SRB cytotoxicity assay, SK-MEL-28. It counts as cell-based. To be noted: Homo sapiens. On the procedure:
as §1, §2

The next experiment relates to 1A9 cells. Kind of experiment: Cell Titer-Glo cell viability, parent 1A9 cells. It counts as cell-based, human. To be noted: parental 1A9 cells, 48 hours. On the procedure:
These cell lines have specific amino acid mutations in tubulin that prevent Taxol®-binding. […] Synthetic (+)-Peloruside A was used for the present example.
1A9, ptx10 and ptx22 cells were plated in 96-well plates to approximately 50% confluency. On the next day, Taxol® or Peloruside A was added to each well and incubated for 48 hours. A final concentration of 1, 2, 3, 4, 5, 8, 10, 20, 30, 50, 100, 300, 500, or 1000 nM of Taxol® was used. A final concentration of 10, 20, 30, 40, 50 or 70 nM of Peloruside A was used. Cell viability was measured using the Cell Titer-Glo Luminescent Cell Viability Assay (Promega). FIGS. 80-82 show bar graphs of cell viability at various concentrations of Peloruside A and Taxol®.

Experiment [2] concerns Tubulin, purified from bovine brains. Kind of experiment: Tubulin polymerization in vitro. It counts as biochemical. The procedure:
Tubulin, purified from bovine brains and prepared in PEM-buffer (80 mM PIPES, 0.5 mM MgCl2, 1 mM EGTA, pH 6.9) was thawed under vacuum on ice. Tubulin was incubated at 37° C. until almost melted and resuspended to a final concentration of 2 mg/ml and placed on ice. Peloruside A or Taxol® was added into transparent 96-well plates (Coming Incorp. Costar) and placed on ice. GTP (Sigma) was added to a final concentration of 1 mM. The 96 well plate was warmed to 37° C. and 120 μl of tubulin solution was added into each well. The absorbance of the reaction at 340 nm over time (each 40-50 sec.) was measured on the spectrophotometer TECAN SPECTRAFluor Plus. Peloruside A or Taxol® was added to the tubulin at a final concentration of 5 or 10 μM.

Here are results for two molecules from patent US20040235939A1, “Synthesis of peloruside a and analogs thereof for use as antitumor agents” (priority 2003, published 2004).

Like-named read-outs stand apart in the source and are kept apart here.

In the case of `CC[C@H](/C=C(/C)C1C[C@@H](OC)CC(O)C(C)(C)C2(O)OC(C[C@@H](OC)C2O)C[C@@H](OC)[C@H](O)C(=O)O1)CO` (single isomer, unassigned; (+)) [Peloruside A, (+)-Peloruside A], the GI50 in the experiment with NCI-H460 (NCI-H460, 96 h) is 8.27 nM; with NCI-H460 (NCI-H460, 144 h), 5.38 nM; in the experiment with NCI-H460 (NCI-H460, 192 h), 4.77 nM; in the experiment with SK-MEL-28 (SK-MEL-28, 96 h), 23.3 nM; in the experiment on SK-MEL-28 (SK-MEL-28, 144 h), 7.29 nM; with SK-MEL-28 (SK-MEL-28, 192 h), 2.07 nM. In addition, the “inhibition of proliferation of tumor cell lines” value in experiment [1] is reported as “inhibited proliferation”; in experiment [1] (listed as ent-40), “did inhibit the growth”. In addition, the “inhibition of cell growth (antimitotic activity)” value in the experiment on 1A9 cells is “potent antimitotic activity”. The “polymerization of tubulin dimers into microtubule polymers (microtubule-stabilizing activity)” value in experiment [2] is on record as “did polymerize tubulin dimers into microtubule polymers”. Besides, the tubulin stabilization activity entry in experiment [2] (5 or 10 μM, 37° C., absorbance at 340 nm) is recorded as “potent tubulin stabilization activity”.
Regarding `CC(=O)O[C@H]1C(=O)[C@@]2(C)[C@H]([C@H](OC(=O)c3ccccc3)[C@]3(O)C[C@H](OC(=O)[C@H](O)[C@@H](NC(=O)c4ccccc4)c4ccccc4)C(C)=C1C3(C)C)[C@]1(OC(C)=O)CO[C@@H]1C[C@@H]2O` [Paclitaxel, paclitaxel, reference compound], the GI50 worked out at 0.25 nM in the experiment with NCI-H460 (NCI-H460, 96 h, NCl-H460, Lung, 4 Days, read-out: GI50); 0.57 nM with NCI-H460 (NCI-H460, 144 h, NCl-H460, Lung, 6 Days, read-out: GI50); 0.56 nM with NCI-H460 (NCI-H460, 192 h, NCl-H460, Lung, 8 Days, read-out: GI50); 0.76 nM with SK-MEL-28 (96 h, SK-MEL-28, Melanoma, 4 Days, read-out: GI50); 0.2 nM in the experiment on SK-MEL-28 (144 h, SK-MEL-28, Melanoma, 6 Days, read-out: GI50); 0.01 nM in the experiment on SK-MEL-28 (192 h, SK-MEL-28, Melanoma, 8 Days, read-out: GI50).
